US8106152B2, “Antimicrobial composition” (Dairy Australia Limited, priority 2003, dated 2012)
Like-named read-outs stand apart in the source and are kept apart here. Non-standard residues stand in square brackets, D forms with d. No end group written: not given here. pS = N[C@@H](COP(=O)(O)O)C(=O)O

What was measured:
[1] = system: Streptococcus mutans Ingbritt; assay: Antibacterial planktonic assay (microplate growth assay); type: cell-based; conditions: for inhibition of S. mutans growth: growth pH 7.20, up to concentrations of 300 μM; for MIC: pH 7.20, tested singly or in combination with a 1:1 ratio of zinc or calcium
Protocol: The oral opportunistic pathogen Streptococcus mutans Ingbritt was used in this study as an indicator strain. The antibacterial assay was conducted in 96 well plates and bacterial growth continuously monitored over 40 h, as previously described (Malkoski et al., 2001). Briefly, bacteria were cultured in Todd Hewitt Broth (36.4 g/l) containing Yeast extract (5.0 g/l) and 100 mM potassium phosphate with a pH of 6.3 or 7.2. The bacterial inocula were prepared by diluting exponentially growing cells in growth medium to give 2.7×10^4 viable cells/ml. In the bacterial growth assays test wells contained κ-casein-A(106-169) or κ-casein-B(106-169) at concentrations between 20 and 120 μM. these peptides were also tested in combination with zinc or calcium ions to give ratios of […]:divalent metal ion of 1:1 to 1:4. Synthetic […]κ-casein-A(138-158) and […]κ-casein-B(138-158) peptides were also tested in this assay. The plates were incubated at 37° C. and growth determined by measuring optical density (OD) at 620 nm using an iEMS microplate reader (Labsystems, OY Research Technologies Division).

[2] = system: Streptococcus mutans Ingbritt; conditions: S. mutans, pH 6.28; previous study (Malkoski et al., 2001); cited from earlier work
plaque [3] = conditions: double blind crossover trial, Addy et al., 1980; cited from earlier work
[4] = system: S. mutans Ingbritt biofilm; assay: Viability of S. mutans cultured as a biofilm in constant depth film fermenter (CDFF); type: cell-based, Streptococcus mutans
Protocol: A constant depth film fermenter (CDFF: Wimmpenny, Cardiff University, UK) was used for biofilm formation. The CDFF consists of a stainless steel disc rotating at a constant speed of 3 rpm containing 15 polytetrafluoroethylene (PTFE) pans each of which contain 5 plugs of 4.5 mm in diameter. The plugs were set to 0.4 mm below the surface of the steel disc. Inbuilt scrapers were used to maintain a constant biofilm depth of 0.4 mm. The scrapers are attached so that the stainless steel disc rotates under them; the scrapers are spring loaded so that they are pressed down against the pans. An anaerobic atmosphere was maintained in the CDFF by continuous gassing with 5% CO2 in N2. The CDFF was housed in a modified CO2 incubator, which was used to maintain a constant culture temperature of 37° C. A S. mutans Ingbritt batch culture in Todd Hewitt (35.4 g/l), Yeast Extract (8 g/L) broth (THYE) in exponential growth phase was used to inoculate the CDFF at a flow rate of 30 ml/h for 5 h. The growth media, THYE containing 0.1% (w/v) sucrose, was then pumped into the CDFF at a constant flow rate of 40 ml/h.
At specified times prior to and after treatment with solutions, plugs were removed from the CDFF, washed to remove planktonic bacteria and viable counts were performed to determine bacterial numbers. To assess the effect on cell viability of various solutions growth media addition to the CDFF was suspended for 10 min and replaced by the solution at a flow rate of 30 ml/h. After 10 min growth media addition was resumed. Solutions tested in the CDFF were: 2 mM Tris-HCl pH6.0; 10 mg/ml Kappacin preparation (see above) in 2 mM Tris-HCl pH 6.0; 10 mg/ml Kappacin preparation (see above) and 20 mM ZnCl2 in 2 mM Tris-HCl pH 6.0; 20 mM ZnCl2 in 2 mM Tris-HCl pH 6.0; 2 mM ZnCl2 in 2 mM Tris-HCl pH 6.0 and 0.05% chlorhexidine digluconate in deionized water.

[5] = system: supragingival dental plaque; assay: Clinical antiplaque trial, mouthrinse as only oral hygiene, Silness and Loe Plaque Index; type: in vivo, human
Text: Ten subjects were recruited for the double-blind, cross-over study. Subjects were recruited from undergraduate students enrolled at the School of Dental Science, The University of Melbourne. The group consisted of 6 females and 4 males with a mean age of 21 years. Subjects were examined prior to the commencement of the trial and all were gauged to be of good health, having dentitions without unrestored carious lesions or evidence of moderate to severe gingivitis. The subjects had not used any dentifrices containing antimicrobial agents prior to commencement of the trial. Approval was obtained from the Human Research Ethics Committee of the University of Melbourne.
At the commencement of the trial, the subjects were instructed to cease all other forms of daily oral hygiene practices and to solely rely on the use of the allocated mouthrinse solution. Four solutions were tested as mouthrinses in this investigation: Solution A: Deionized water. B: 1% (w/v) Kappacin preparation in deionized water. C: 20 mM ZnCl in deionized water. D: 1% (w/v) Kappacin preparation and 20 mM ZnCl in deionized water. The pH of all solutions was adjusted to 6.9±0.1 using KOH. Subjects were instructed to rinse three times daily: morning, mid-day and evening with 15 ml of solution for a duration of one minute. Each trial session was for four days with a clinical evaluation at the end of the trial. The Silness and Loe Plaque Index (PI) was used to evaluate plaque (Silness and Loe, 1964). The gingival area of each tooth surface (distal, buccal, mesial and lingual) was given a score from 0-3. All teeth excluding third molars were scored at the conclusion of the trial. Following each trial session the subjects resumed their normal oral hygiene habits for a minimum of seven days prior to the next trial. Data were analysed using the nonparametric Wilcoxon rank test.

plaque [6] = conditions: mouthrinse, Silness and Loe plaque index, Giertsen et al. (1988); cited from earlier work

Molecule: CC[C@H](C)[C@H](NC(=O)[C@@H](NC(=O)[C@H](CCC(=O)O)NC(=O)[C@@H]1CCCN1C(=O)[C@H](COP(=O)(O)O)NC(=O)[C@H](C)NC(=O)[C@H](CCC(=O)O)NC(=O)[C@H](CC(C)C)NC(=O)[C@@H](NC(=O)[C@H](C)NC(=O)[C@@H](NC(=O)[C@@H](NC(=O)[C@H](CO)NC(=O)[C@H](CCC(=O)O)NC(=O)[C@@H](NC(=O)[C@H](C)N)C(C)C)[C@@H](C)O)C(C)C)[C@@H](C)O)C(C)C)C(=O)N[C@@H](CCC(=O)O)C(=O)N[C@@H](CO)C(=O)N1CCC[C@H]1C(=O)N1CCC[C@H]1C(=O)N[C@@H](CCC(=O)O)C(=O)O [Ser(P)^149κ-casein-B(138-158), Ala Val Glu Ser Thr Val Ala Thr Leu Glu Ala Ser(P) Pro Glu Val Ile Glu Ser Pro Pro]
- calculated MIC ([1]; S. mutans, growth pH 6.28, microplate growth assay): 44 µM
- inhibition of S. mutans growth [1]: no inhibition

Molecule: AVESTVATLED[pS]PEVIESPP [Ser(P)^149κ-casein-A(138-158)]
- MIC ([1]; S. mutans): NI (No inhibition at concentrations up to 1 mM)
- inhibition of S. mutans growth [1]: no inhibition
- MIC [2]: 26 µM

Molecule: O=C([O-])CC(O)(CC(=O)[O-])C(=O)[O-].O=C([O-])CC(O)(CC(=O)[O-])C(=O)[O-].[Zn+2].[Zn+2].[Zn+2] [Zinc citrate]
- reduction of plaque accumulation (Turesky plaque index) (plaque [3]): 5-8%

Molecule: [Cl-].[Cl-].[Zn+2] [ZnCl2]
- decrease in viable cell counts ([4]; 20 mM ZnCl2 in 2 mM Tris-HCl pH 6.0): 92%
- reduction of viable count ([4]; 5 ml of 2 mM ZnCl2 in 2 mM Tris-HCl pH 6.0): ~60%
- plaque accumulation relative to water or other treatments (Wilcoxon rank test, posterior teeth plaque index scores) ([5]; four days mouthrinse as only oral hygiene): significantly (P<0.05) reduced
- decrease in mean whole mouth plaque index scores ([5]; four days, 20 mM zinc chloride mouthrinse): 6%
- decrease in the mean Plaque Index Score of posterior teeth compared with water control ([5]; four days, 15 ml rinse three times daily, 1% (w/v) Kappacin and/or 20 mM ZnCl2, pH 6.9): 9%
- MIC ([1]; S. mutans): 200 µM
- increase in the tooth surfaces with no plaque compared with a water control (plaque [6]): 9%

Molecule: [H]/N=C(\N/C(=N/[H])NCCCCCCNC(=N)NC(=N)Nc1ccc(Cl)cc1)Nc1ccc(Cl)cc1 [chlorhexidine digluconate]
- decrease in S. mutans cell viability [4]: 48%
- time after treatment with no significant difference to pre-treatment viability ([4]; 0.05% (w/v) solution): 3.5 h

Molecule: [Ca+2].[Cl-].[Cl-] [CaCl2]
- MIC ([1]; S. mutans): NI (No inhibition at concentrations up to 1 mM)
- effect on S. mutans growth ([1]; alone, at concentrations up to 1 mM): no effect
